Data taken from patent publication US20240158412A1 (Faxian Therapeutics, LLC, priority 2021, published 2024).
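Further: fluorescence intensity readout of USP7 enzymatic activity, reaction incubated 90 min at room temperature.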

Each compound was assayed against USP7 (Homo sapiens, UniProt Q93009) (assay: biochemical).
Sequence of USP7 (Q93009 whole entry): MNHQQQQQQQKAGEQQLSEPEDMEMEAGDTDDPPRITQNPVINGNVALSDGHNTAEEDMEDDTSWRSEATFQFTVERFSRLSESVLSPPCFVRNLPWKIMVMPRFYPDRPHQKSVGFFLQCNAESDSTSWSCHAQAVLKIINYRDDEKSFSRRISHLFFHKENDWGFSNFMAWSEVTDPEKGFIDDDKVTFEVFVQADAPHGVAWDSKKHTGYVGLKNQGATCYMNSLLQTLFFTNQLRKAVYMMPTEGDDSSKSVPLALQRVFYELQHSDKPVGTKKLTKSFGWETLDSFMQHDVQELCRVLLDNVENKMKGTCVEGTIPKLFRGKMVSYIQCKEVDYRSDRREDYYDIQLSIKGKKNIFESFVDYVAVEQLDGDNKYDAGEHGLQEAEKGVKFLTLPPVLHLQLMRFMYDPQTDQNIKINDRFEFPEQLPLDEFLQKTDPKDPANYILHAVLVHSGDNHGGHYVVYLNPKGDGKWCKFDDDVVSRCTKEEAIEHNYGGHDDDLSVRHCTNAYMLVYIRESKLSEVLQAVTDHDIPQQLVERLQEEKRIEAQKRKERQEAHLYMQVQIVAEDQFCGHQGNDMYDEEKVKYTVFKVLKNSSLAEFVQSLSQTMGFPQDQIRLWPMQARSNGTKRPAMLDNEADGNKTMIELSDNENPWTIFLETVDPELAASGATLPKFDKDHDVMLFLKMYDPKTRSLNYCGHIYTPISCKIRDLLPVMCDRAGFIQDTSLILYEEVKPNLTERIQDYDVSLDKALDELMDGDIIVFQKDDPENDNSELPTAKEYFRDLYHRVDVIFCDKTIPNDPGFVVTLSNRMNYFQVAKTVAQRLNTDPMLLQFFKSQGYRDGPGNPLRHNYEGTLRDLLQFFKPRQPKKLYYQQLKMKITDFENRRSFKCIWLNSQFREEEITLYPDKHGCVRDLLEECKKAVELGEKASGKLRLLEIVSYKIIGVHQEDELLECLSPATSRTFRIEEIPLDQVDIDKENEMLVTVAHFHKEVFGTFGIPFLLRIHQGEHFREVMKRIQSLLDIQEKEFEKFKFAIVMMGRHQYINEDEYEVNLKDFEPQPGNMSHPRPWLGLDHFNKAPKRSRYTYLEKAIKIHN
Procedure: Example A. Biochemical Assay of USP7 Inhibitor Potency (IC50)
Fluorescence intensity assay of USP7 activity in the presence USP7 inhibitors. Recombinant USP7 protein (catalogue number E-519) and the fluorescence substrate ubiquitin-rhodamine 110 (Rh110) (catalogue number U-555) were purchased from Boston Biochem (840 Memorial Drive, Cambridge, MA 02139). The reaction was carried out in buffer 20 mM HEPES, pH 7.3, 150 mM NaCl, 1 mM TCEP, 125 μg/mL BSA at room temperature in a black 384-well Microplate (Greiner, catalog number 781076).
Test compounds were dissolved in DMSO to make 50 mM stock solution. […] In wells of a black 384-well Microplate, 15 μl of 100 pM of USP7 enzyme was added to each well with pre-diluted compounds and incubated at room temperature for 30 minutes, followed by addition of 10 μl of ubiquitin-rhodamine 110 (Rh110) substrate to reach 160 nM final concentration. The reaction mixtures were incubated for additional 90 minutes at room temperature. The fluorescence signal of the digested substrate was measured on an EnVision microplate reader (PerkinElmer,), using excitation at 485 nm and emission at 535 nm. The IC50 values were calculated using XLfit software.
In the case of CC1(C)CC(N2CCCc3cc(C#N)cc(-c4ccnc5cc(Cn6ncc(C(C)(C)C)cc6=O)sc45)c32)CN1 (stereo in doubt) [Example 132, (S)-8-(2-((4-(tert-butyl)-6-oxopyridazin-1(6H)-yl)methyl)thieno[3,2-b]pyridin-7-yl)-1-(5,5-dimethylpyrrolidin-3-yl)-1,2,3,4-tetrahydroquinoline-6-carbonitrile], the IC50 is reported as < 10 nM. Compound Cn1ccnc(Cc2cc3nccc(-c4cc(Cl)cc5c4N([C@@H]4CNC6(CCC6)C4)CCC5)c3s2)c1=O (stereo in doubt) [Example 160, 3-((7-(6-chloro-1-(5-azaspiro[3.4]octan-7-yl)-1,2,3,4-tetrahydroquinolin-8-yl)thieno[3,2-b]pyridin-2-yl)methyl)-1-methylpyrazin-2(1H)-one] has an IC50 of 101 to 1000 nM. With N#Cc1cc(-c2ccnc3cc(Cn4ncc(C5(C(F)(F)F)CC5)cc4=O)sc23)c2c(c1)C1CC1CN2[C@@H]1CN[C@@H](CO)C1 (stereo in doubt) [Example 194b, (1aS,7bR)-3-((3S,5R)-5-(hydroxymethyl)pyrrolidin-3-yl)-4-(2-((6-oxo-4-(1-(trifluoromethyl)cyclopropyl)pyridazin-1(6H)-yl)methyl)thieno[3,2-b]pyridin-7-yl)-1a,2,3,7b-tetrahydro-1H-cyclopropa[c]quinoline-6-carbonitrile] the IC50 was 10 to 100 nM. CC(C)(C)c1cnn(Cc2cc3nccc(-c4cc(Cl)cc5c4N(C4CNC(CO)(CO)C4)CCO5)c3s2)c(=O)c1 (stereo in doubt) [Example 213a, (R)-2-((7-(4-(5,5-bis(hydroxymethyl)pyrrolidin-3-yl)-7-chloro-3,4-dihydro-2H-benzo[b][1,4]oxazin-5-yl)thieno[3,2-b]pyridin-2-yl)methyl)-5-(tert-butyl)pyridazin-3(2H)-one] was tested, and the IC50 was 10 to 100 nM. CC(C)(C)c1cnn(Cc2cc3nccc(-c4cc(Cl)cc5c4N(C4CNC(CO)(CO)C4)CCO5)c3s2)c(=O)c1 (stereo in doubt) [Example 213b, (S)-2-((7-(4-(5,5-bis(hydroxymethyl)pyrrolidin-3-yl)-7-chloro-3,4-dihydro-2H-benzo[b][1,4]oxazin-5-yl)thieno[3,2-b]pyridin-2-yl)methyl)-5-(tert-butyl)pyridazin-3(2H)-one] was tested, and the IC50 was < 10 nM. For CCn1c(N(C)C)cc(=O)n(Cc2cc3nccc(-c4cc(C#N)cc5c4N([C@H]4CN[C@](C)(CO)C4)CCO5)c3s2)c1=O (stereo in doubt) [Example 219, 5-(2-((4-(dimethylamino)-3-ethyl-2,6-dioxo-2,3-dihydropyrimidin-1(6H)-yl)methyl)thieno[3,2-b]pyridin-7-yl)-4-((3R,5S)-5-(hydroxymethyl)-5-methylpyrrolidin-3-yl)-3,4-dihydro-2H-benzo[b][1,4]oxazine-7-carbonitrile], the IC50 was < 10 nM. N[C@@H]1CCN(C2CCOc3cc(Cl)cc(-c4ccnc5cc(CN6C(=O)CCC6=O)sc45)c32)C1 (stereo in doubt) [Example 230a, 1-((7-((S)-4-((R)-3-aminopyrrolidin-1-yl)-7-chlorochroman-5-yl)thieno[3,2-b]pyridin-2-yl)methyl)pyrrolidine-2,5-dione] was tested, and the IC50 was 10 to 100 nM. For N[C@@H]1CCN(C2CCOc3cc(Cl)cc(-c4ccnc5cc(CN6C(=O)CCC6=O)sc45)c32)C1 (stereo in doubt) [Example 230b, 1-((7-((R)-4-((R)-3-aminopyrrolidin-1-yl)-7-chlorochroman-5-yl)thieno[3,2-b]pyridin-2-yl)methyl)pyrrolidine-2,5-dione], the IC50 was > 1000 nM. O=C1CCC(=O)N1Cc1cc2nccc(-c3cc(Cl)cc4c3N(C3CNC3)CCC4)c2s1 [Example 1, 1-((7-(1-(azetidin-3-yl)-6-chloro-1,2,3,4-tetrahydroquinolin-8-yl)thieno[3,2-b]pyridin-2-yl)methyl)pyrrolidine-2,5-dione] was tested, and the IC50 was 10 to 100 nM. For CN1CC(N2CCCc3cc(Cl)cc(-c4ccnc5cc(CN6C(=O)CCC6=O)sc45)c32)C1 [Example 2, 1-((7-(6-chloro-1-(1-methylazetidin-3-yl)-1,2,3,4-tetrahydroquinolin-8-yl)thieno[3,2-b]pyridin-2-yl)methyl)pyrrolidine-2,5-dione], the IC50 was 10 to 100 nM. With O=C1CCC(=O)N1Cc1cc2nccc(-c3cc(Cl)cc4c3N(C3CN(C5CCC5)C3)CCC4)c2s1 [Example 3, 1-((7-(6-chloro-1-(1-cyclobutylazetidin-3-yl)-1,2,3,4-tetrahydroquinolin-8-yl)thieno[3,2-b]pyridin-2-yl)methyl)pyrrolidine-2,5-dione] the IC50 was 10 to 100 nM. Compound CCN1CC(N2CCCc3cc(Cl)cc(-c4ccnc5cc(CN6C(=O)CCC6=O)sc45)c32)C1 [Example 4, 1-((7-(6-chloro-1-(1-ethylazetidin-3-yl)-1,2,3,4-tetrahydroquinolin-8-yl)thieno[3,2-b]pyridin-2-yl)methyl)pyrrolidine-2,5-dione] has an IC50 of 10 to 100 nM. For O=C1CCC(=O)N1Cc1cc2nccc(-c3cc(Cl)cc4c3N(C3CN(C5CC5)C3)CCC4)c2s1 [Example 5, 1-((7-(6-chloro-1-(1-cyclopropylazetidin-3-yl)-1,2,3,4-tetrahydroquinolin-8-yl)thieno[3,2-b]pyridin-2-yl)methyl)pyrrolidine-2,5-dione], the IC50 was 10 to 100 nM. Work on O=C1CCC(=O)N1Cc1cc2nccc(-c3cc(Cl)cc4c3N(C3CN(C5COC5)C3)CCC4)c2s1 [Example 6, 1-((7-(6-chloro-1-(1-(oxetan-3-yl)azetidin-3-yl)-1,2,3,4-tetrahydroquinolin-8-yl)thieno[3,2-b]pyridin-2-yl)methyl)pyrrolidine-2,5-dione] yielded an IC50 of 10 to 100 nM. Compound CNC(=O)N1CC(N2CCCc3cc(Cl)cc(-c4ccnc5cc(CN6C(=O)CCC6=O)sc45)c32)C1 [Example 7, 3-[6-chloro-8-[2-[(2,5-dioxopyrrolidin-1-yl)methyl]thieno[3,2-b]pyridin-7-yl]-3,4-dihydro-2H-quinolin-1-yl]-N-methyl-azetidine-1-carboxamide] has an IC50 of 101 to 1000 nM. In the case of CC(=O)N1CC(N2CCCc3cc(Cl)cc(-c4ccnc5cc(CN6C(=O)CCC6=O)sc45)c32)C1 [Example 8, 1-((7-(1-(1-acetylazetidin-3-yl)-6-chloro-1,2,3,4-tetrahydroquinolin-8-yl)thieno[3,2-b]pyridin-2-yl)methyl)pyrrolidine-2,5-dione], the IC50 is reported as 101 to 1000 nM. For O=C1CCC(=O)N1Cc1cc2nccc(-c3cc(Cl)cc4c3N(C3CN(CCO)C3)CCC4)c2s1 [Example 10, 1-[[7-[6-chloro-1-[1-(2-hydroxyethyl)azetidin-3-yl]-3,4-dihydro-2H-quinolin-8-yl]thieno[3,2-b]pyridin-2-yl]methyl]pyrrolidine-2,5-dione], the IC50 was 10 to 100 nM. O=C1CCC(=O)N1Cc1cc2nccc(-c3cc(Cl)cc4c3N(C3CN(CC(F)F)C3)CCC4)c2s1 [Example 11, 1-((7-(6-chloro-1-(1-(2,2-difluoroethyl)azetidin-3-yl)-1,2,3,4-tetrahydroquinolin-8-yl)thieno[3,2-b]pyridin-2-yl)methyl)pyrrolidine-2,5-dione] showed an IC50 of 101 to 1000 nM. N#CC1(CN2CC(N3CCCc4cc(Cl)cc(-c5ccnc6cc(CN7C(=O)CCC7=O)sc56)c43)C2)CC1 [Example 12, 1-((3-(6-chloro-8-(2-((2,5-dioxopyrrolidin-1-yl)methyl)thieno[3,2-b]pyridin-7-yl)-3,4-dihydroquinolin-1(2H)-yl)azetidin-1-yl)methyl)cyclopropanecarbonitrile] showed an IC50 of 101 to 1000 nM. Work on O=C1C2CC2C(=O)N1Cc1cc2nccc(-c3cc(Cl)cc4c3N(C3CNC3)CCC4)c2s1 (stereo not shown) [Example 13, 3-((7-(1-(azetidin-3-yl)-6-chloro-1,2,3,4-tetrahydroquinolin-8-yl)thieno[3,2-b]pyridin-2-yl)methyl)-3-azabicyclo[3.1.0]hexane-2,4-dione] yielded an IC50 of 10 to 100 nM. With CC1(C)C2C(=O)N(Cc3cc4nccc(-c5cc(Cl)cc6c5N(C5CNC5)CCC6)c4s3)C(=O)C21 (stereo not shown) [Example 14, 3-[[7-[1-(azetidin-3-yl)-6-chloro-3,4-dihydro-2H-quinolin-8-yl]thieno[3,2-b]pyridin-2-yl]methyl]-6,6-dimethyl-3-azabicyclo[3.1.0]hexane-2,4-dione] the IC50 was 10 to 100 nM. O=c1cccnn1Cc1cc2nccc(-c3cc(Cl)cc4c3N(C3CNC3)CCC4)c2s1 [Example 16, 2-[[7-[1-(azetidin-3-yl)-6-chloro-3,4-dihydro-2H-quinolin-8-yl]thieno[3,2-b]pyridin-2-yl]methyl]pyridazin-3-one] was tested, and the IC50 was 10 to 100 nM. Cc1ccc(=O)n(Cc2cc3nccc(-c4cc(Cl)cc5c4N(C4CNC4)CCC5)c3s2)n1 [Example 17, 2-[[7-[1-(azetidin-3-yl)-6-chloro-3,4-dihydro-2H-quinolin-8-yl]thieno[3,2-b]pyridin-2-yl]methyl]-6-methyl-pyridazin-3-one] gave an IC50 of 10 to 100 nM. For Cc1ccnn(Cc2cc3nccc(-c4cc(Cl)cc5c4N(C4CNC4)CCC5)c3s2)c1=O [Example 18, 2-[[7-[1-(azetidin-3-yl)-6-chloro-3,4-dihydro-2H-quinolin-8-yl]thieno[3,2-b]pyridin-2-yl]methyl]-4-methyl-pyridazin-3-one], the IC50 was 10 to 100 nM. For O=c1c2ccccc2ncn1Cc1cc2nccc(-c3cc(Cl)cc4c3N(C3CNC3)CCC4)c2s1 [Example 19, 3-[[7-[1-(azetidin-3-yl)-6-chloro-3,4-dihydro-2H-quinolin-8-yl]thieno[3,2-b]pyridin-2-yl]methyl]quinazolin-4-one], the IC50 was > 1000 nM. Compound O=c1c2ccccc2cnn1Cc1cc2nccc(-c3cc(Cl)cc4c3N(C3CNC3)CCC4)c2s1 [Example 21, 2-[[7-[1-(azetidin-3-yl)-6-chloro-3,4-dihydro-2H-quinolin-8-yl]thieno[3,2-b]pyridin-2-yl]methyl]phthalazin-1-one] has an IC50 of 101 to 1000 nM. For Cc1cnn(Cc2cc3nccc(-c4cc(Cl)cc5c4N(C4CNC4)CCC5)c3s2)c(=O)c1 [Example 22, 2-[[7-[1-(azetidin-3-yl)-6-chloro-3,4-dihydro-2H-quinolin-8-yl]thieno[3,2-b]pyridin-2-yl]methyl]-5-methyl-pyridazin-3-one], the IC50 was 10 to 100 nM. O=c1ccn(CC(F)F)c(=O)n1Cc1cc2nccc(-c3cc(Cl)cc4c3N(C3CNC3)CCC4)c2s1 [Example 23, 3-[[7-[1-(azetidin-3-yl)-6-chloro-3,4-dihydro-2H-quinolin-8-yl]thieno[3,2-b]pyridin-2-yl]methyl]-1-(2,2-difluoroethyl)pyrimidine-2,4-dione] was tested, and the IC50 was < 10 nM.
